In PubChem BioAssay (NCI):
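48-hour exposure; five concentrations; linearly interpolated endpoints. The concentration for 50% growth inhibition is given as GI50. TGI marks complete inhibition of growth.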

How the values were obtained:
Assay in all cases: DTP human tumour cell line panel, 48 h
SW-620 colon = system: SW-620 colon
MCF7 breast = system: MCF7 breast
NCI/ADR-RES ovarian = system: NCI/ADR-RES ovarian
T-47D breast = system: T-47D breast
786-0 renal = system: 786-0 renal
HCT-116 colon = system: HCT-116 colon
COLO 205 colon = system: COLO 205 colon
OVCAR-8 ovarian = system: OVCAR-8 ovarian
U251 CNS = system: U251 CNS
UACC-257 melanoma = system: UACC-257 melanoma
HCC-2998 colon = system: HCC-2998 colon
A549 NSCLC = system: A549 NSCLC
SR leukemia = system: SR leukemia

SMILES	TGI (SW-620 colon) [µM]	TGI (MCF7 breast) [µM]	TGI (NCI/ADR-RES ovarian) [µM]	TGI (T-47D breast) [µM]	TGI (786-0 renal) [µM]	TGI (HCT-116 colon) [µM]	TGI (COLO 205 colon) [µM]	TGI (OVCAR-8 ovarian) [µM]	TGI (U251 CNS) [µM]	TGI (UACC-257 melanoma) [µM]	TGI (HCC-2998 colon) [µM]	TGI (A549 NSCLC) [µM]	GI50 (SW-620 colon) [µM]	GI50 (COLO 205 colon) [µM]	GI50 (U251 CNS) [µM]	GI50 (HCC-2998 colon) [µM]	GI50 (A549 NSCLC) [µM]	TGI (SR leukemia) [µM]	GI50 (OVCAR-8 ovarian) [µM]	GI50 (UACC-257 melanoma) [µM]
CC(=O)O[C@@H]1[C@H](C(C)C)[C@@H](OC(C)=O)C/C(C)=C/CC[C@]2(C)O[C@@H]12	> 100	> 100	> 100	> 100	> 100	> 100	> 100	> 100	> 100	> 100	> 100	> 100								
N#CCCC1C(C#N)C2(Cl)CC1(Cl)C(Cl)=C2Cl (stereo not drawn)	> 10	> 10	> 10	> 10		> 10	> 10	> 10	> 10		> 10	> 10								
CCOC(=O)C1(C/C=C/CBr)Cc2ccccc2C1=O (stereo not drawn)	7.06	8.73	5.02	12.2	25.8	15.8	11.7	7.34	14.8	22.6	21.3	> 35.7								
CC(=O)OC1CC(OC2C(O)CC(OC3C(O)CC(OC4CCC5(C)C(CCC6C5CC(O)C5(C)C(C7=CC(=O)OC7)CCC65O)C4)OC3C)OC2C)OC(C)C1OC1OC(CO)C(O)C(O)C1O (stereo not drawn)	0.252	0.431	0.122	0.633	0.107	0.139	0.394	0.204	0.207	0.767	0.441	0.0399								
O=C(NC(=O)c1ccccc1[N+](=O)[O-])Nc1ccc(Oc2ncc(Br)cn2)c(Cl)c1			0.0589				2.22	0.0736	> 64.4	0.0434	32.9	> 100	< 0.0187	< 0.0188	< 0.0185	0.0497	< 0.0248			
CC(=O)NC(Cc1ccc(O)cc1)C(=O)O (stereo not drawn)	> 100	> 100	> 100	> 100	> 100	> 100	> 100	> 100	> 100	> 100	> 100	> 100								
N#Cc1c(N2CCCC2)ncn(-c2ccccc2)c1=O	> 100		> 100	> 100	> 100	> 100	> 100	> 100	> 100	> 100	> 100	> 100						> 100		
c1ccc(N=c2sc3ccccc3nc2Nc2ccccc2)cc1	> 100		> 100	> 100	> 100	> 100	> 100	> 100	> 100	> 100	> 100	> 100						> 100		
O=C(N/N=C(/COc1ccc(Cl)cc1)N=Cc1ccncc1)c1ccncc1	> 100	> 100	> 100	> 100	> 100	> 100	> 100	> 100	> 100	> 100	> 100	> 100								
O=[N+]([O-])c1ccc2c(c1)c(OCc1ccccc1)nn2Cc1ccccc1	> 100	> 100	> 100	> 100	> 100			> 100		> 100	> 100	> 100								
COc1cccc(C(=O)O[C@H]2[C@@H]3[C@]4(OC(C)=O)CO[C@@H]4C[C@H](O)[C@@]3(C)C(=O)[C@H](OC(C)=O)C3=C(C)[C@@H](OC(=O)[C@H](O)[C@@H](NC(=O)OC(C)(C)C)c4ccco4)C[C@]2(O)C3(C)C)c1	> 37.5	> 37.5	> 18.3		> 37.5	9.93	0.119	> 14.4	> 16.6	> 37.5		> 37.5						> 14.8		
CN1CCc2cc(N)cc3c2C1Cc1ccc(O)c(O)c1-3 (stereo not drawn)	> 100		> 100	> 100	> 100	> 100	> 100	> 100	> 100	52.9	33.1	> 100						> 100		
C[C@]12CCC(O)CC1=CC[C@@H]1[C@@H]2CC[C@]2(C)C(=O)[C@H](n3ccnc3)C[C@@H]12 (stereo partly drawn)	> 100	> 100	> 100		> 100	> 100	71	> 100	> 100	> 100		> 100						> 100		
Nc1nc(SCCc2ccccc2)c2[nH]cnc2n1	> 100		> 100	> 100	> 100	> 100		> 100	> 100	67.5	93.8	> 100						> 100		
O=C1CCCc2cc3c(cc21)CC1(Cc2ccccc2C1)C3		61.2	> 100	96.9	29.6	13.6	5.11	43.7	64	20.2	39.3	43.3								
COC(=O)c1cc(=O)nc2sc3cccc(C)c3n12	> 100	> 100	> 100	> 100	47.3	> 100	29.8	49.2	> 100	> 100		> 100						> 100		
Cc1n[nH]c(=O)n1/N=C/c1ccc(Cl)cc1	> 100		> 100	> 100	> 100	> 100	> 100	> 100		> 100	> 100	> 100						> 100		
C=C(C)C(=O)OC1C/C(CO)=C\C(O)C/C(C)=C/C2OC(=O)C(=C)C21 (stereo not drawn)	33.3				37.1	37.1	38.3	49.5	> 100			> 100						50.5		
CCCCC#C[I+]c1ccccc1					28.8	30	28.7	32.5	29.9	30.8	34.4	33.8						37.5		

SMILES	TGI (SW-620 colon) [µM]	TGI (MCF7 breast) [µM]	TGI (NCI/ADR-RES ovarian) [µM]	TGI (T-47D breast) [µM]	TGI (786-0 renal) [µM]	TGI (HCT-116 colon) [µM]	TGI (COLO 205 colon) [µM]	TGI (OVCAR-8 ovarian) [µM]	TGI (U251 CNS) [µM]	TGI (UACC-257 melanoma) [µM]	TGI (HCC-2998 colon) [µM]	TGI (A549 NSCLC) [µM]	GI50 (SW-620 colon) [µM]	GI50 (COLO 205 colon) [µM]	GI50 (U251 CNS) [µM]	GI50 (HCC-2998 colon) [µM]	GI50 (A549 NSCLC) [µM]	TGI (SR leukemia) [µM]	GI50 (OVCAR-8 ovarian) [µM]	GI50 (UACC-257 melanoma) [µM]
COc1cc(C(=O)N(C(=S)OCc2ccccn2)c2ccccc2)cc(OC)c1OC	> 100	> 100	> 100	> 100	> 100	> 100	> 100	> 100	> 100	> 100								49		
Cc1c(O)c(O)cc[n+]1C1OC(CO)C(O)C1O (stereo not drawn)	> 100				> 100	> 100	> 100	> 100	> 100	> 100	> 100	> 100								
CCOC(=O)c1cn2c(n1)sc1cccc(C)c12		> 100	> 100		> 100	> 100	> 100	> 100		> 100	> 100	> 100								
O=C(CCN1CCCCC1)C(=Cc1ccccc1)C(=O)CCN1CCCCC1		> 100	> 100			> 100	> 76.4	> 58.1	> 100	> 100	> 100	> 100	1.76	2.62	3.04				2.56	87.4
C=CC1(C)CCC2C(=CCC3C2(C)CC(O)C(O)C3(C)COC2OC(C(=O)O)C(O)C(O)C2O)C1 (stereo not drawn) (tested in a mixture with another compound)	> 100	> 100		> 100	> 100	> 100	> 100	> 100	> 100	> 100	> 100	> 100						> 100		
C=C1C(=O)O[C@@H]2C(=O)[C@@H](C)CCC/C(C)=C/CC[C@@]3(C)O[C@@H]3C[C@@H]12	43.4	> 100	> 100	> 100	43.9	96.1	47.9	> 100	> 100	> 100	> 100	> 100								
CC(C)=CCc1c2c(c3occ(-c4ccc(O)cc4)c(=O)c3c1O)CC(C(C)(C)O)O2 (stereo not drawn)	64.4	28.3	40.6	34.1	35.6	45.3	30	36.2	25.9	29.1	23.2	27.8								
C1CN(c2nc3c(nnc4nc(N5CCOCC5)sc43)s2)CCO1	> 100	> 100	> 100	> 100	> 100	> 100	> 100	> 100	> 100	> 100		> 100								
ClCCN1CCC2(CC1)SSC1(CCN(CCCl)CC1)S2	> 100	39.6	> 100		> 100	> 100	41.2	> 100	> 100	> 100		> 100						> 100		
N#Cc1c(-c2ccccc2)/c(=C\Nc2cccc(C(F)(F)F)c2)c(=O)n2c1nc1ccccc12	> 100	> 100	80.4	> 100	> 100	> 100	> 100	51.5	> 100	> 100	> 100	> 100								
N#CC1(C#N)N[C@@H](c2ccsc2)[C@H]2C(=O)N(c3ccccc3)C(=O)[C@H]21	> 100		> 100	> 100	> 100	> 100	> 100	> 100	> 100	> 100		> 100						78.7		
Cc1cc(Cc2cc(C)c(N)cc2N)c(N)cc1N	> 100	> 100	> 100	> 100	> 100	> 100	> 100	> 100	> 100	> 100		> 100								
COc1cc2nc3n(c(=O)c2cc1OC)-c1ccc([N+](=O)[O-])cc1C3=O	62.2	32	> 100	> 100	> 100	> 100	> 100	> 100	> 100	> 100	> 100	> 100								
C#CCNC(CS)C(=O)O (stereo not drawn)	> 100		> 100	> 100	> 100	> 100	> 100	> 100	> 100	> 100	> 100	> 100						> 100		
Cc1cn2c(/C=N/N=C(N)N)c(-c3cccc([N+](=O)[O-])c3)nc2s1	2.7	2.12	> 100		7.08	> 100		3.7	2.95	4.22	2.83	4.94								
CC[C@@H]1CC[C@@H]2[C@H](CC[C@]3(C)[C@@H](OC(C)=O)CC[C@@H]23)[C@H]1COC(C)=O	> 100	> 100	76	> 100	> 100	31.7	36.8	82	45	65.6	33.4	59.2								
Clc1ccccc1C(SCc1ccccc1)SCc1ccccc1	> 100	> 100	> 100		> 100	> 100	> 100	> 100	> 100	> 100	> 100	> 100						> 100		
COCO[C@@H]1C[C@H]2C(=O)Nc3ccccc3C(=O)N2C1	> 100	> 100	> 100	> 100	> 100	> 100	> 100	> 100	> 100	> 100		> 100								
CCC(C(=O)O)c1ccc(OC)cc1 (stereo not drawn)	> 100					> 100	> 100		> 100	> 100	> 100	> 100						> 100		
